{"source": "patent US5776957A", "about": "“Nornicotine enantiomers for use as a treatment for dopamine related conditions and disease states” (The University of Kentucky Research Foundation, priority 1996, dated 1998)", "key": {"[1]": {"system": "[3H]DA-preloaded rat striatal slices (nicotinic receptors)", "assay": "[3H]overflow (DA release) from [3H]DA-preloaded rat striatal slices", "format": "cell-based", "protocol": "In vitro pharmacological effects of NIC are generally investigated using either striatal slices or synaptosome preparations preloaded with [^3 H] DA. NIC-evoked [^3 H]overflow is obtained routinely in the presence of nomifensine (10 μM; a DA uptake inhibitor) and for pargyline (10 μM, a monoamine oxidase inhibitor) in the superfusion buffer, such that [^3 H]overflow represents primarily [^3 H]DA rather than [H]DA-metabolites (Zumstein et al., 1981, Hoffmann and Cubeddu, 1982, Dwoskin and Zahniser, 1986, Rapier et al., 1988), and for this reason, [^3 H]overflow also will be referred to as [^3 H] DA release in the proposal.\nThe present studies use striatal slices superfused with various concentrations of NIC or norNIC for prolonged periods.\nFIG. 4. […] Insets illustrate the response to the low concentration range. […] NIC exposure indicated by the bar under time course. Note: 1-min sample collection period. […] N=4 rats.\nRat striatal slices were depolarized with 10 μM NIC, 20 mM K+or 1 Hz, 60 pulses or 3 Hz, 180 pulses electrical field stimulation. […] N=4.\nMEC or DHβE was included in the superfusion buffer for 60 min prior to the addition of NIC, and superfusion continued for 60 min in the presence of NIC+antagonist."}, "[2]": {"assay": "Amphetamine drug discrimination (substitution tests)", "format": "in vivo, rat", "conditions": "for amphetamine-correct responding reached by individual rats: any dose, none of the rats reached; for amphetamine-appropriate responding (partial substitution): nicotine 0.1-1.0 mg/kg, nornicotine 1-10 mg/kg; for relative potency, nicotine vs nornicotine: partial substitution for amphetamine", "protocol": "Rats were trained in on two-lever food-reinforced operant tasks to discriminate amphetamine (1 mg/kg) from saline. After discrimination training stabilized, test doses of amphetamine (0.0625-2.0 mg/kg), nicotine (0.1-1.0 mg/kg) or nornicotine (1-10 mg/kg) were assessed for their ability to substitute for the amphetamine training dose during brief test sessions in which food reinforcement was withheld.\nNine male Sprague-Hawley rats were obtained from Harlan Industries (Indianapolis, Ind.) and were caged individually with water continuously available. Food access was restricted in order to maintain body weights at approximately 80% of free-feeding weight. Prior to the start of the experiment, all rats received a single injection of amphetamine (1 mg.kg, IP) as part of an unrelated experiment. Apparatus Six operant chambers (ENV-001, Med Associates, St. Albans, Vt.) enclosed in a sound attenuating environment were used. Located in the bottom center of the front panel in each chamber was a 5×4.-cm opening to a recessed food tray. Two metal response levers were located on the front panel, one on each side of the food tray. The center of each lever was mounted 7.3 cm from the grid floor. A 28-Vcue light, 3 cm in diameter, was centered 6 cm above each lever. A personal computer, interfaced to the chamber with Med Associates equipment, controlled the experimental sessions and collected data.\nThe general procedures utilized to establish amphetamine discrimination were similar to those outlined previously (13). Briefly, rats were first given access to food pellets (45 mg sucrose pellet, Noyes Co., Lancaster, N.H.) dispensed noncontingently into the food tray with both levers present. One lever was then removed and the rat was shaped to depress the other lever for food reinforcement. Following this, rats received 15-min daily sessions in which the lever (left or right) available for food reinforcement was alternated daily. […] The start of each session was signaled by the onset of both cue lights mounted above the levers, and the termination of each session was signaled by the offset of these lights. This training phase was continued until the rat earned 20 reinforces on an FR25 schedule for two days.\nAmphetamine discrimination training was conducted Monday through Friday. For this training, both levers were mounted in the chamber. Amphetamine (A; 1 mg/kg) or saline (S), was injected IP 15 min prior to the start of the session, with the order of injections being either AASS or SSAA. The left lever was designated as the amphetamine-correct lever for 4 rats, while the right lever was amphetamine -correct for 5 rats. On Monday, Wednesday and Friday, injection-appropriate responding was food-reinforcedon an FR25 schedule for the entire 15-min session. However, 2-min extinction periods were instituted at the beginning of sessions on Tuesday and Thursday (one amphetamine and one saline test per week) to assess the control of amphetamine (or saline) over responding. […] During the remaining 13 min of these sessions, contingent reinforcement for injection-appropriate responding was reinstated. This phase of training was continued until the rat completed the first FR25 on the correct lever for 10 consecutive sessions and also completed 80% or more responses on the injection-appropriate lever during 4 consecutive extinction periods.\nThe substitution phase was identical to the previously described amphetamine discrimination phase, except for the Friday session, which was decreased to a 4-min extinction session with no food available."}, "[3]": {"system": "mouse striatal synaptosomes", "conditions": "Grady et al., cited from earlier work"}, "[4]": {"system": "rat and mouse striatal synaptosomes", "conditions": "Rapier, El-Bizri, Rowell; cited from earlier work"}, "[5]": {"system": "nicotinic receptor sites in the brain", "assay": "displacement of nicotine from nicotinic receptor sites in the brain", "format": "binding"}, "[6]": {"assay": "hemodynamic function in conscious animals", "format": "in vivo", "conditions": "behaviorally active doses"}, "rat striatal slices": {"system": "rat striatal slices", "conditions": "0.1-100 μM, 15 min exposure, Dwoskin et al., 1993, cited from earlier work"}, "[7]": {"conditions": "rats; cited from earlier work"}, "[8]": {"conditions": "cited from earlier work"}}, "note": "“Also recorded” adds a separate entry of the source. Like-named read-outs stand apart in the source and are kept apart here.", "data": [{"smiles": "CN1CCC[C@H]1c1cccnc1", "note": "[S(-) nicotine]", "values": [{"measurement": "absolute [3H]overflow vs 20 mM K+ or 1 Hz, 60 pulses stimulation", "setting": "[1]", "result": "not significantly different"}, {"measurement": "evoked [3H]overflow", "setting": "[1]", "result": "increase in [^3 H]overflow; also recorded: stereoselective and concentration dependent increase"}, {"measurement": "plateau in [3H]overflow", "setting": "[1]", "result": 30, "unit": "mM"}, {"measurement": "plateau in response", "setting": "[1]", "result": "fail to produce a plateau in response"}, {"measurement": "time of peak effect", "setting": "[1]", "result": "10 to 15", "unit": "min"}, {"measurement": "time of return of release to basal levels", "setting": "[1]", "result": "30 to 60", "unit": "min"}, {"measurement": "total number of lever presses", "setting": "[2]; 15 min", "result": "significant decreases in total number of lever presses"}, {"measurement": "plateau of dose-effect curve, amphetamine-appropriate responding", "setting": "[2]; 45 min", "result": 50}, {"measurement": "total number of lever presses", "setting": "[2]; 45 min", "result": "significant decrease in total number of lever presses"}, {"measurement": "amphetamine-correct responding reached by individual rats", "setting": "[2]", "result": "< 80", "unit": "%"}, {"measurement": "amphetamine-appropriate responding", "setting": "[2]; nicotine 1 mg/kg, 15 min", "result": "Approximately 50%"}, {"measurement": "amphetamine-appropriate responding (maximum)", "setting": "[2]; nicotine 1 mg/kg, 45 min", "result": "approximately 50%"}, {"measurement": "amphetamine-correct responses, individual rats", "setting": "[2]; nicotine 1 mg/kg, 45 min", "result": "31-59%"}, {"measurement": "amphetamine-appropriate responding (partial substitution)", "setting": "[2]", "result": "approximately 50%"}, {"measurement": "relative potency, nicotine vs nornicotine", "setting": "[2]", "result": "more potent than nornicotine"}, {"measurement": "EC50", "setting": "[3]; 1992, read-out: EC50 for NIC-stimulated, MEC-sensitive [3H]overflow", "result": 480, "unit": "nM"}, {"measurement": "EC50", "setting": "[3]; 1994, 0.1-30 μM, 10 min exposure, read-out: EC50, peak DA release", "result": 330, "unit": "nM"}, {"measurement": "plateau concentration of concentration-response curve", "setting": "[4]", "result": "1 to 100", "unit": "µM"}]}, {"smiles": "c1cncc([C@@H]2CCCN2)c1", "note": "[S(-) nornicotine, S-(-) nornicotine]", "values": [{"measurement": "EC50", "setting": "[1]; Rattus norvegicus, read-out: EC50 for norNIC stimulated, DHβE-sensitive [3H]overflow", "result": "880 ± 310", "unit": "nM"}, {"measurement": "evoked [3H]overflow", "setting": "[1]; concentration-dependent", "result": "increase in [^3 H]overflow; also recorded: stereoselective and concentration dependent increase"}, {"measurement": "plateau in response", "setting": "[1]; concentration-response curve, 60-min exposure", "result": "not observed at concentrations up to 3 mM; also recorded: fail to produce a plateau in response"}, {"measurement": "release of dopamine from presynaptic terminals", "setting": "[1]; neuronal tissue", "result": "stereoselective and receptor-mediated"}, {"measurement": "total number of lever presses", "setting": "[2]; 15 min", "result": "significant decreases in total number of lever presses"}, {"measurement": "plateau of dose-effect curve, amphetamine-appropriate responding", "setting": "[2]; 45 min", "result": 50}, {"measurement": "total number of lever presses", "setting": "[2]; 45 min", "result": "significant decrease in total number of lever presses"}, {"measurement": "amphetamine-correct responding reached by individual rats", "setting": "[2]", "result": "< 80", "unit": "%"}, {"measurement": "amphetamine-appropriate responding (partial substitution)", "setting": "[2]", "result": "approximately 50%"}, {"measurement": "amphetamine-appropriate responding", "setting": "[2]; nornicotine 3 mg/kg, 15 min", "result": "Approximately 50%"}, {"measurement": "amphetamine-appropriate responding (maximum)", "setting": "[2]; nornicotine 10 mg/kg, 45 min", "result": "approximately 50%"}, {"measurement": "amphetamine-correct responses, individual rats", "setting": "[2]; nornicotine 10 mg/kg, 45 min", "result": "33-61%"}, {"measurement": "relative potency, nicotine vs nornicotine", "setting": "[2]", "result": "less potent than nicotine"}, {"measurement": "behavioral profile in drug discrimination", "setting": "[2]; rat, in vivo", "result": "behavioral profile similar to nicotine"}, {"measurement": "displacement of nicotine from nicotinic receptor sites", "setting": "[5]", "result": "cause displacement of nicotine"}, {"measurement": "effect on hemodynamic function", "setting": "[6]", "result": "no adverse effective on hemodynamic function"}, {"measurement": "endogenous DA release", "setting": "rat striatal slices", "result": "concentration-dependent and Ca+-dependent increase"}, {"measurement": "endogenous DA release", "setting": "rat striatal slices; listed as S(-) enantiomer of norNIC", "result": "concentration-dependent and Ca^++ -dependent increase"}, {"measurement": "substitution for nicotine in drug discrimination", "setting": "[7]", "result": "substitutes fully for nicotine"}, {"measurement": "detection in urine of human smokers", "setting": "[8]", "result": "detectable in the urine of human smokers"}]}]}
